Test results published in patent US8658791B2, “2-substituted-6-amino-5-alkyl, alkenyl or alkynyl-4-pyrimidinecarboxylic acids and 6-substituted-4-amino-3-alkyl, alkenyl or alkynyl picolinic acids and their use as herbicides” (Dow AgroSciences, LLC, priority 2007, dated 2014).

Columns and labels:
Type in all cases: in vivo
[1] = tested on: barnyardgrass (Echinochloa crus-galli); test: General postemergence herbicidal activity, ECHCG; details: Echinochloa crus-galli, post-emergence, 336 h, postemergence spray, visual score after 14 days, 0 = no injury, 100 = complete kill, read-out: Post-emergent Weed Control ECHCG; for pest or weed control at 140 g/ha: 140 g ai/ha; for pest or weed control at 280 g/ha: 280 g ai/ha
Procedure: (§1) Seeds or nutlets of the desired test plant species were planted in Sun Gro MetroMix® 306 planting mixture, which typically has a pH of 6.0 to 6.8 and an organic matter content of about 30 percent, in plastic pots with a surface area of 103 square centimeters. When required to ensure good germination and healthy plants, a fungicide treatment and/or other chemical or physical treatment was applied. The plants were grown for 7-21 days in a greenhouse with an approximate 15 hour photoperiod which was maintained at about 23-29° C. during the day and 22-28° C. during the night. Nutrients and water were added on a regular basis and supplemental lighting was provided with overhead metal halide 1000-Watt lamps as necessary. The plants were employed for testing when they reached the first or second true leaf stage.
(§2) A weighed amount, determined by the highest rate to be tested, of each test compound was placed in a 25 mL glass vial and was dissolved in 4 mL of a 97:3 v/v (volume/volume) mixture of acetone and dimethyl sulfoxide (DMSO) to obtain concentrated stock solutions. […] The concentrated stock solutions obtained were diluted with 20 mL of an aqueous mixture containing acetone, water, isopropyl alcohol, DMSO, Atplus 411F crop oil concentrate, and Triton® X-155 surfactant in a 48.5:39:10:1.5:1.0:0.02 v/v ratio to obtain spray solutions containing the highest application rates. Additional application rates were obtained by serial dilution of 12 mL of the high rate solution into a solution containing 2 mL of 97:3 v/v (volume/volume) mixture of acetone and dimethyl sulfoxide (DMSO) and 10 mL of an aqueous mixture containing acetone, water, isopropyl alcohol, DMSO, Atplus 411F crop oil concentrate, and Triton X-155 surfactant in a 48.5:39:10:1.5:1.0:0.02 v/v ratio to obtain 1/2X, 1/4X, 1/8X and 1/16X rates of the high rate. Compound requirements are based upon a 12 mL application volume at a rate of 187 L/ha. Formulated compounds were applied to the plant material with an overhead Mandel track sprayer equipped with a 8002E nozzles calibrated to deliver 187 L/ha over an application area of 0.503 square meters at a spray height of 18 inches (43 cm) above the average plant canopy height. Control plants were sprayed in the same manner with the solvent blank.
(§3) The treated plants and control plants were placed in a greenhouse as described above and watered by sub-irrigation to prevent wash-off of the test compounds. After 14 days, the condition of the test plants as compared with that of the untreated plants was determined visually and scored on a scale of 0 to 100 percent where 0 corresponds to no injury and 100 corresponds to complete kill.

[2] = tested on: lambsquarter (Chenopodium album); test: General postemergence herbicidal activity, CHEAL; details: Chenopodium album, post-emergence, 336 h, postemergence spray, visual score after 14 days, 0 = no injury, 100 = complete kill, read-out: Post-emergent Weed Control CHEAL; for pest or weed control at 140 g/ha: 140 g ai/ha; for pest or weed control at 280 g/ha: 280 g ai/ha
Procedure: as §1, §2, §3

[3] = tested on: velvetleaf (Abutilon theophrasti); test: General postemergence herbicidal activity, ABUTH; details: Abutilon theophrasti, post-emergence, 336 h, postemergence spray, visual score after 14 days, 0 = no injury, 100 = complete kill, read-out: Post-emergent Weed Control ABUTH; for pest or weed control at 140 g/ha: 140 g ai/ha; for pest or weed control at 280 g/ha: 280 g ai/ha
Procedure: as §1, §2, §3

[4] = tested on: wild poinsettia (Euphorbia heterophylla); test: General postemergence herbicidal activity, EPHHL; details: Euphorbia heterophylla, post-emergence, 336 h, postemergence spray, visual score after 14 days, 0 = no injury, 100 = complete kill, read-out: Post-emergent Weed Control EPHHL; for pest or weed control at 140 g/ha: 140 g ai/ha; for pest or weed control at 280 g/ha: 280 g ai/ha
Procedure: as §1, §2, §3

[5] = tested on: rice (Oryza sativa); test: General postemergence herbicidal activity, ORYSA; details: Oryza sativa, post-emergence, 336 h, postemergence spray, visual score after 14 days, 0 = no injury, 100 = complete kill, read-out: Post-emergent Weed Control ORYSA; for plant injury at 140 g/ha: 140 g ai/ha; for plant injury at 280 g/ha: 280 g ai/ha
Procedure: as §1, §2, §3

Compound | pest or weed control at 140 g/ha [1] [%] | pest or weed control at 140 g/ha [2] [%] | pest or weed control at 140 g/ha [3] [%] | pest or weed control at 140 g/ha [4] [%] | plant injury at 140 g/ha [5] [%] | pest or weed control at 280 g/ha [1] [%] | pest or weed control at 280 g/ha [2] [%] | pest or weed control at 280 g/ha [3] [%] | pest or weed control at 280 g/ha [4] [%] | plant injury at 280 g/ha [5] [%] | further results
C=Cc1c(N)nc(-c2ccc(Cl)c(OC)c2Cl)nc1C(=O)OC [Compound 18, 6-Amino-2-(2,4-dichloro-3-methoxyphenyl)-5-vinylpyrimidine-4-carboxylic acid methyl ester] | 90 | 100 | 100 | 40 | 0 |  |  |  |  |  | 
C=Cc1c(N)nc(-c2ccc(Cl)c(N(C)C)c2F)nc1C(=O)OC [Compound 19, 6-Amino-2-(4-chloro-3-dimethylamino-2-fluorophenyl)-5-vinylpyrimidine-4-carboxylic acid methyl ester] |  |  |  |  |  | 85 | 100 | 100 | 100 | 85 | 
C=Cc1c(N)nc(-c2ccc(Cl)c(C(C)F)c2)nc1C(=O)OC (stereo not shown) [Compound 20, 6-Amino-2-[4-chloro-3-(1-fluoroethyl)phenyl]-5-vinylpyrimidine-4-carboxylic acid methyl ester] |  |  |  |  |  | 70 | 100 | 85 | 100 | 0 | 
C/C=C/c1c(N)nc(-c2ccc(Cl)c(OC)c2F)nc1C(=O)OC [Compound 22, 6-Amino-2-(4-chloro-2-fluoro-3-methoxyphenyl)-5-((E)-propenyl)pyrimidine-4-carboxylic acid methyl ester] |  |  |  |  |  |  |  |  |  |  | pest or weed control at 70 g/ha ([1]; 70 g ai/ha): 95%; pest or weed control at 70 g/ha ([2]; 70 g ai/ha): 95%; pest or weed control at 70 g/ha ([3]; 70 g ai/ha): 85%; pest or weed control at 70 g/ha ([4]; 70 g ai/ha): 100%; plant injury at 70 g/ha ([5]; 70 g ai/ha): 0%
C#Cc1c(N)nc(-c2ccc(Cl)c(OC)c2F)nc1C(=O)OC [Compound 24, 6-Amino-2-(4-chloro-2-fluoro-3-methoxyphenyl)-5-ethynyl-pyrimidine-4-carboxylic acid methyl ester] | 70 | 85 | 80 | 85 | 0 |  |  |  |  |  | 
COC(=O)c1nc(-c2ccc(Cl)cc2)c(F)c(N)c1C [Compound 25, 4-Amino-6-(4-chlorophenyl)-5-fluoro-3-methylpyridine-2-carboxylic acid methyl ester] |  |  |  |  |  | 0 | 100 | 70 | 100 | 0 | 
C=Cc1c(C(=O)OC)nc(-c2ccc(Cl)cc2)c(F)c1N [Compound 26, 4-Amino-6-(4-chlorophenyl)-5-fluoro-3-vinylpyridine-2-carboxylic acid methyl ester] | 70 | 100 | 100 | 90 | 0 |  |  |  |  |  | 
COC(=O)c1nc(-c2ccc(Cl)c(OC)c2F)cc(N)c1C [Compound 27, 4-Amino-6-(4-chloro-2-fluoro-3-methoxyphenyl)-3-methyl-pyridine-2-carboxylic acid methyl ester] |  |  |  |  |  | 0 | 30 | 80 | 100 | 0 | 
C=Cc1c(N)cc(-c2ccc(Cl)cc2F)nc1C(=O)OC [Compound 29, 4-Amino-6-(4-chloro-2-fluorophenyl)-3-vinylpyridine-2-carboxylic acid methyl ester] |  |  |  |  |  | 0 | 85 | 85 | 75 | 10 | 
C=C(F)c1c(C(=O)OC)nc(-c2ccc(Cl)cc2)c(F)c1N [Compound 30, 4-Amino-6-(4-chlorophenyl)-5-fluoro-3-(1-fluorovinyl)pyridine-2-carboxylic acid methyl ester] | 0 | 100 | 100 | 90 | 0 |  |  |  |  |  | 
C#Cc1c(N)cc(-c2ccc(Cl)c(OC)c2F)nc1C(=O)OC [Compound 31, 4-Amino-6-(4-chloro-2-fluoro-3-methoxyphenyl)-3-ethynyl-pyridine-2-carboxylic acid methyl ester] | 80 | 95 | 95 | 100 | 0 |  |  |  |  |  | 
COC(=O)c1nc(-c2ccc(Cl)c(OC)c2F)nc(N)c1C(C)=O [Compound 32, 5-Acetyl-6-amino-2-(4-chloro-2-fluoro-3-methoxyphenyl)-pyrimidine-4-carboxylic acid methyl ester] |  |  |  |  |  | 0 | 70 | 70 | 100 | 0 | 
COC(=O)c1nc(-c2ccc(Cl)c(OC)c2F)nc(N)c1C=O [Compound 33, 6-Amino-2-(4-chloro-2-fluoro-3-methoxyphenyl)-5-formyl-pyrimidine-4-carboxylic acid methyl ester] |  |  |  |  |  |  |  |  |  |  | pest or weed control at 229 g/ha ([1]; 229 g ai/ha): 0%; pest or weed control at 229 g/ha ([2]; 229 g ai/ha): 50%; pest or weed control at 229 g/ha ([3]; 229 g ai/ha): 80%; pest or weed control at 229 g/ha ([4]; 229 g ai/ha): 100%; plant injury at 229 g/ha ([5]; 229 g ai/ha): 0%
COC(=O)c1nc(-c2ccc(Cl)c(OC)c2F)cc(N)c1C=O [Compound 34, 4-Amino-6-(4-chloro-2-fluoro-3-methoxyphenyl)-3-formylpyridine-2-carboxylic acid methyl ester] |  |  |  |  |  | 95 | 90 | 100 | 95 | 0 | 
